# From patent US9296703B2, “Substituted N-(3-(pyrimidin-4-yl)phenyl)acrylamide analogs as tyrosine receptor kinase BTK inhibitors” (University of Utah Research Foundation, priority 2012, dated 2016)
# Target: recombinant full-length human BTK kinase (Homo sapiens (Human), UniProt Q06187)
# Test: BTK kinase assay: ADP generation assay (ADP-Glo)
# Assay type: biochemical
# Conditions: 60 nM BTK, 1.6 μM ATP, 20 μM MBP substrate, 60 min at room temperature
# Procedure: The primary assay for compound inhibitory activity was the ADP generation assay described herein. Test compounds were diluted to desired concentrations in kinase reaction buffer and briefly incubated with recombinant full-length human BTK kinase with a (His)6 tag (81.3 kDa; Invitrogen Corporation, Carlsbad, Calif.). The assay as described is based on volumes used in a standard 384 well format using solid, white-wall plates. The reaction was subsequently initiated by the addition of ATP and myelin basic protein (MBP) substrate (Millipore Corporation, Waltham, Mass.). Composition of the assay reaction mixture ([…]) was: 5% v/v DMSO, 60 nM BTK, 1.6 μM ATP, and 20 μM MBP substrate. […] Luminescence was measured on an EnVision® microplate reader (PerkinElmer). The amount of luminescence from each reaction is directly correlated with BTK kinase activity. Percent inhibition and IC50 values were calculated by comparing enzyme activity in drug-treated wells to the appropriate controls.
# IC50 values are determined using GraphPad Prism 5 software. […]
# Activity (IC50) was determined in the BTK assays describe herein above, i.e. either the ADP generation assay and/or the time-resolved FRET assay, and the data are shown in Table III. […]
# Sequence of recombinant full-length human BTK kinase (Q06187 whole entry): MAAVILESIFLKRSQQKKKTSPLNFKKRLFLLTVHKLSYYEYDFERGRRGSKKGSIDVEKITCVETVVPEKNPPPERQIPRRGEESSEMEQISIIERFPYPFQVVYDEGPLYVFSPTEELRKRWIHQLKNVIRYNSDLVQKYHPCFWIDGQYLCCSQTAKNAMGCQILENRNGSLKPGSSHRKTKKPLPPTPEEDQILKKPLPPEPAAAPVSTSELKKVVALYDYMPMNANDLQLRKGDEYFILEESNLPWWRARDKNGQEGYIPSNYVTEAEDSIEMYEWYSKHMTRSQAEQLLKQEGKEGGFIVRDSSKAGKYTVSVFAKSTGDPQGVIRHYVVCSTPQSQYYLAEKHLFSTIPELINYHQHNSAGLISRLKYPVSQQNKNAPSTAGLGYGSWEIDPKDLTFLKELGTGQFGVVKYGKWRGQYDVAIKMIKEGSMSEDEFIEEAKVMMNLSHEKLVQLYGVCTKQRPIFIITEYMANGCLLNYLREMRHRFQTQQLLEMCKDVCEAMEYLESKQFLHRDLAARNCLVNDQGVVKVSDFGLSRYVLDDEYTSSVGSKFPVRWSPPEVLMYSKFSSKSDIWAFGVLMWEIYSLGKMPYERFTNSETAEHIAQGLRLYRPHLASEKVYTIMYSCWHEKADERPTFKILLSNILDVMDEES
row,Structure (SMILES),IC50
1,"C=CC(=O)Nc1cccc(-c2nc(Nc3ccc(N4CCOCC4)c(OP(=O)(OC(C)C)OC(C)C)c3)ncc2Cl)c1 [Compound 2, 5-((4-(3-acrylamidophenyl)-5-chloropyrimidin-2-yl)amino)-2 - morpholinophenyl diisopropyl phosphate]",3.58 µM
2,"C=CC(=O)Nc1cccc(-c2nc(Nc3ccc(N4CCOCC4)c(O)c3)ncc2Cl)c1 [Compound 1, N-(3-(5-chloro-2-((3-hydroxy-4-morpholinophenyl)amino)pyrimidin-4-yl)phenyl)acrylamide]",0.004 µM
